The values that follow come from patent US20240368145A1, “METHODS FOR TREATING CANCER” (IMMUNIC AG, priority 2021, published 2024).

What all share (format): cell-based
Assay [1] has as its system KLK3 mRNA. The experiment in a line: Expression of AR target genes (qRT-PCR) in 22Rv1: KLK3. Conditions: 22Rv1, 1 μM, 48h; relative to vehicle control (DMSO). On the procedure: (§1) The prostate cancer cell line 22Rv1 was treated for 48h with 1 μM Example compound 1, 1/1, 2/1, 2/2, 2/3, 2/4, 2/5, 2/6, 2/7, 2/8, 2/9 and 2/10 and reference compounds SR2211 and XY018. RNA was extracted using the RNA isolation kit XS (Macherey-Nagel) and following the manufacture's manual. RNA quantity was measured with the Nanodrop before reverse transcription using Superscript II (Invitrogen #100004925). For the quantitative real-time PCR with SYBR-Green (Qiagen #204074), the following primers were used:
(§2) qRT-PCR was performed using SYBR-Green (Qiagen #204074) reagents in a PCR cycler (Gorbett Research) Rotor Gene RG3000 with the following program: denaturation for 5′ at 95° C.; 40 cycles of 20″ at 95° C. and 15″ at 60° C.″ and at the end of the last cycle, the melting temperature of the products was determined by gradually increasing from 60° C. to 99° C. CT values from all samples were normalized to reference (housekeeping) genes using the mean CT value of the GAPDH and YWHAZ (reference genes). Next the values are put relative to the untreated control (vehicle/DMSO).
In general terms: Real-time PCR tracks product formation cycle by cycle.

Assay [2] deals with NKX3.1 mRNA. The experiment in a line: Expression of AR target genes (qRT-PCR) in 22Rv1: NKX3.1. Conditions: Homo sapiens; 22Rv1, 1 μM, 48h; relative to vehicle control (DMSO).
In assay [3] the test system is ATAD2/ANCCA mRNA. The assay is described as follows: Expression of AR target genes (qRT-PCR) in 22Rv1: ATAD2/ANCCA. Particulars: 22Rv1, 1 μM, 48h; relative to vehicle control (DMSO). On the procedure: as §1, §2
For assay [4], the system named is PL21 (AML). The assay is described as follows: Oncotest inhibition of viability, PL21. Particulars: PL-21; AML cell line PL21; read-out: IC50 range.
For assay [5], the system named is LP1 (MM). The experiment in a line: Oncotest inhibition of viability, LP1. Particulars: MM cell line LP1; read-out: IC50 range.
Assay [6] has as its system MOLT4 (ALL). The assay is described as follows: Oncotest inhibition of viability, MOLT4. Particulars: Homo sapiens, MOLT-4; ALL cell line MOLT4; read-out: IC50 range.
Assay [7] relates to HL60 (AML). The assay is described as follows: Oncotest inhibition of viability, HL60. Conditions: Homo sapiens, HL-60; AML cell line HL60; read-out: IC50 range.
In assay [8] the test system is KG1 (AML). The assay is described as follows: Oncotest inhibition of viability, KG1. Particulars: AML cell line KG1; read-out: IC50 range.
In assay [9] the test system is K562 (CML). The assay is described as follows: Oncotest inhibition of viability, K562. Conditions: Homo sapiens; CML cell line K562; read-out: IC50 range.
The test system of assay [10] is 24 different hematological cell lines. The assay is described as follows: Inhibition of viability in 24 different hematological cell lines (mean). Conditions: mean over 24 different hematological cell lines; read-out: geometrical mean IC50, inhibition of viability.
The test system of assay [11] is RPMI8226 (MM). The assay is described as follows: Oncotest inhibition of viability, RPMI8226. Particulars: Homo sapiens, RPMI-8226; MM cell line RPMI8226; read-out: IC50 range.
Assay [12] relates to AML cell line HL-60. The assay is described as follows: CellTiter-Blue proliferation assay, HL-60. Particulars: Homo sapiens, geometric mean relative IC50, 72 hours, read-out: IC50 range for cell line HL-60. On the procedure:
(§3) Aim of this study was to evaluate compounds of Example 1, 1/1, 2/2, 2/5 and 2/6 in a proliferation assays. The 5 test compounds were tested in a CellTiter-Blue® based proliferation assay in three AML cell lines (HL-60, THP-1 and MOLM-13). The compounds were tested at 10 concentrations in half-log increments (highest concentration 30 μM or 100 μM) in duplicates. The incubation period with the applied compounds was fixed to 72 hours.

Assay [13] relates to KCL22 (CML). The experiment in a line: Oncotest inhibition of viability, KCL22. Particulars: Homo sapiens, KCL-22; CML cell line KCL22; read-out: IC50 range.
In assay [14] the test system is AML cell line THP-1. The experiment in a line: CellTiter-Blue proliferation assay, THP-1. Conditions: Homo sapiens, geometric mean relative IC50, 72 hours, read-out: IC50 range for cell line THP-1. On the procedure:
as §3

Assay [15] has as its system MYLA (NHL). The assay is described as follows: Oncotest inhibition of viability, MYLA. Particulars: NHL cell line MYLA; read-out: IC50 range.
For assay [16], the system named is MEG01 (CML). The experiment in a line: Oncotest inhibition of viability, MEG01. Particulars: Homo sapiens, MEG-01; CML cell line MEG01; read-out: IC50 range.
For assay [17], the system named is CCRFCEM/VCR (ALL). The experiment in a line: Oncotest inhibition of viability, CCRFCEM/VCR. Particulars: Homo sapiens, CCRF-CEM; ALL cell line CCRFCEM/VCR; read-out: IC50 range.
Assay [18] has as its system AML cell line MOLM-13. The experiment in a line: CellTiter-Blue proliferation assay, MOLM-13. Particulars: Homo sapiens, geometric mean relative IC50, 72 hours, read-out: IC50 range for cell line MOLM-13. On the procedure: as §3
On the technique in general: Alamar Blue is a resazurin reagent that responds to reducing activity.

Assay [19] has as its system NCIH929 (MM). The experiment in a line: Oncotest inhibition of viability, NCIH929. Particulars: Homo sapiens, NCI-H929; MM cell line NCIH929; read-out: IC50 range.
In assay [20] the test system is CCRFCEM (ALL). The experiment in a line: Oncotest inhibition of viability, CCRFCEM. Conditions: Homo sapiens, CCRF-CEM; ALL cell line CCRFCEM; read-out: IC50 range.
Assay [21] concerns NOMO1 (AML). The assay is described as follows: Oncotest inhibition of viability, NOMO1. Conditions: Homo sapiens, NOMO-1; AML cell line NOMO1; read-out: IC50 range.
Assay [22] has as its system EM2 (CML). The assay is described as follows: Oncotest inhibition of viability, EM2. Conditions: CML cell line EM2; read-out: IC50 range.
Assay [23] concerns JURKAT (ALL). The experiment in a line: Oncotest inhibition of viability, JURKAT. Conditions: Homo sapiens; ALL cell line JURKAT; read-out: IC50 range.
Assay [24] deals with L363 (MM). The assay is described as follows: Oncotest inhibition of viability, L363. Conditions: Homo sapiens, L-363; MM cell line L363; read-out: IC50 range.
Assay [25] concerns U937 (NHL). The experiment in a line: Oncotest inhibition of viability, U937. Particulars: Homo sapiens, U-937; NHL cell line U937; read-out: IC50 range.
For assay [26], the system named is OCIAML2 (AML). The experiment in a line: Oncotest inhibition of viability, OCIAML2. Particulars: Homo sapiens, OCI-AML2; AML cell line OCIAML2; read-out: IC50 range.

Turning to `CC(C)(O)CCn1ncc(-c2onc(-c3c(F)cccc3Cl)c2-c2ncccn2)c1C(F)(F)F` [2/8], the “KLK3 mRNA expression” value in assay [1] was 1.152. The compound further registered a mrna remaining at 1 µM in [2] of 29.3%. In addition, the “ATAD2/ANCCA mRNA expression” value in [3] was determined as 0.817.

For `COC(=O)c1c(-c2c(F)cccc2Cl)noc1-c1cnn(-c2cccc(Cl)c2)c1C(F)(F)F` [Example 1, Methyl 3-(2-chloro-6-fluorophenyl)-5-(1-(3-chlorophenyl)-5-(trifluoromethyl)-1H-pyrazol-4-yl)isoxazole-4-carboxylate], the IC50 is 100 to 1000 nM in assay [4]; 10 to 100 nM in assay [5]; below 10 nM in assay [6]; below 10 nM in [7]; below 10 nM in assay [8]; at least 1000 nM in [9]. The IC50 in assay [10] was below 25 nM; in [11], below 10 nM; in [12], below 10 nM; in [13] it was 10 to 100 nM; in [14] it was 10 to 100 nM; in [15], 100 to 1000 nM. For the same compound, the IC50 in assay [16] was at least 1000 nM; in assay [17], 10 to 100 nM; in assay [18], below 10 nM; in assay [19], below 10 nM; in assay [20], 10 to 100 nM; in [21], 100 to 1000 nM. The IC50 is 10 to 100 nM in assay [22]; below 10 nM in assay [23]; below 10 nM in [24]; 10 to 100 nM in assay [25]; 10 to 100 nM in [26].

On to `Fc1cccc(Cl)c1-c1noc(-c2cnn(-c3cccc(Cl)c3)c2C(F)(F)F)c1-c1nccs1` [Example 1/1], for which the IC50 in assay [12], in assay [14] and in assay [18] was below 10 nM throughout.

By IC50 is commonly meant the point on the concentration scale where inhibition reaches its midpoint.
